In US20090176817A1, “Method of Treatment of Diarrhea-Predominant Irritable Bowel Syndrome in a Subject” (priority 2005, published 2009):
Where two headings read alike, the source gives them in different places.

What was measured:
IBS patients = test: Study K.241.5016: colonic visceral perception; format: in vivo, human
Procedure: The effect of cilansetron on colonic visceral perception was evaluated in a randomized, doubleblind, placebo-controlled, 2-way crossover study in 16 male and female IBS patients (ITT population), aged 28-66 years. Subjects received single IV doses of placebo or cilansetron 16 mg as 30-minute infusions on two consecutive study days, with no washout between the study days. Colonic distension tests were performed just prior to dosing and after completion of the infusion during each treatment. An electronic barostat was used to produce distensions (successive 4 mmHg increases every 5 minutes, up to a sensation of abdominal pain or a maximum of 40 mmHg). The primary efficacy parameter was the mean distension pressure inducing a sensation of abdominal pain. Secondary effect parameters were the mean distension pressure inducing a sensation of abdominal discomfort, and the response rate, defined as the number of patients experiencing no abdominal pain at the maximum pressure of 40 mmHg. The primary and secondary parameters were compared between cilansetron and placebo treatments using an ANOVA.

[1] = test system: diarrhea-predominant IBS subjects; format: in vivo, human; conditions: for Percentage of Subjects Who Worsened from Baseline: Daily Abdominal Pain / Percentage of Subjects Who Worsened from Baseline: Daily Urgency: S241.3.006, observed value
From the text: (§1) Studies S24 1.3.OO6, S24 1.3.0 1 1, and S24 1.3.009 used the following efficacy measurements: • The subjects answered the following three questions with “yes” or “no” using a phone diary at the end of each week: • a) During the last week, did you experience adequate relief of your IBS symptoms, such as abdominal pain, abdominal discomfort, abnormal bowel habits? • b) During the last week, did you experience adequate relief of your abdominal pain and/or discomfort? • c) During the last week, did you experience adequate relief of your abnormal bowel habits? • The subjects rated the following symptoms using the phone diary at the end of each day: • abdominal pain/discomfort (five-point scale); • stool consistency (seven-point Bristol Stool Scale); • stool frequency (number of bowel movements each day); • urgency (five-point scale); • straining (yes or no); • feeling of incomplete defecation (yes or no); • bloating or feeling of abdominal distension (five-point scale). • In Studies S241 A006 and S241.3.009, subjects completed the IBS-QOL Survey at Baseline (Day 1) and at the end of treatment. In Study S24 1.3.0 1 1, subjects completed the IBS-QOL Survey at Baseline (Day 1), at the end of the three-month treatment period, and at the end of rerandomized treatment.
(§2) Other secondary efficacy parameters for all three studies included: • Responder rate for the weekly diary questions on adequate relief at each month, where a responder for a month (monthly responder) was defined as a subject who answered the weekly question with “yes” at least twice for that month. The responder rate was the percentage of responders within a treatment group. The all-month responder rate for the weekly diary questions on adequate relief was also evaluated, where an all-month responder was defined as a subject who answered the weekly question with “yes” at least twice for each month. The all-month responder rate was the percentage of all-month responders within a treatment group; • Adequate relief rate for the weekly diary questions was calculated for each subject as the number of weekly assessments with adequate relief (“yes”) divided by the total number of weekly assessments; • Percentage of subjects with adequate relief for the weekly diary questions at each week; • Daily diary questions regarding abdominal pain/discomfort (five-point scale), stool consistency (seven-point scale), stool frequency (number of bowel movements each day), straining (yes or no), urgency (five-point scale), feeling of incomplete evacuation (yes or no), and bloating or feeling of abdominal distention (five-point scale); • QOL data assessed by the IBS-QOL questionnaire; and • Question to determine the interruption of activities.
The deterioration of effect analyses focus is to evaluate the percentage of subjects who worsened from Baseline. Clinical limits were set in order to capture a clinically meaningful number of subjects who worsened from Baseline. This clinical limit was also used in identifying those who improved from Baseline which led to a much larger percentage of subjects meeting this criterion. Percentages of subjects who improved from Baseline for these analyses are discussed in order to understand the context of the percentage of subjects who worsened.

clinical [2] = conditions: both, human, in vivo, 2 mg
Procedure: The effect of renal impairment on the pharmacokinetics of cilansetron was evaluated in a study excluding subjects with end-stage renal disease, and utilizing a single-center, open-label, multiple-dose, parallel group study in 13 male and 9 female subjects, aged 33-74 years. […] Healthy subjects were matched to renally-impaired subjects with respect to age, weight, gender, and smoking status. All subjects received oral cilansetron 2 mg TID on Days 1 to 5, and a single dose on the morning of Day 6. Blood samples for measurement of plasma pharmacokinetics of cilansetron and its 4-hydroxy metabolites were collected up to 24 hours following dosing on Day 6, and log-transformed pharmacokinetic parameters for these analytes were statistically compared between study groups. Serum concentrations of unbound cilansetron and its 4-hydroxy metabolites were also measured prior to dosing and at 1 and 1.5 hours postdose on Day 6.

[3] = test system: diarrhea-predominant IBS subjects; test: Study S241.3.011: interruption of activities assessment; format: in vivo, human
From the text: as §1, §2

clinical [4] = conditions: both, human, serum, Fraction Unbound in Serum
Procedure: (§3) The ex vivo protein binding of cilansetron and its 4-hydroxy metabolites has been measured in serum samples collected in a multiple-dose study in healthy and renally impaired male and female subjects, aged 33-74 years. […] Healthy subjects were matched to renally-impaired subjects with respect to age, weight, gender, and smoking status. All subjects received oral cilansetron 2 mg TID on Days 1 to 5, and a single dose on the morning of Day 6.

[5] = test system: diarrhea-predominant IBS subjects; test: Study S241.3.006: interruption of activities assessment; format: in vivo, human; conditions: for Percentage of Subjects Who Worsened from Baseline: Interruption of Activities: S241.3.006, 2 mg TID, observed value
From the text: as §1, §2

[6] = both, human; for Fraction unbound ratio All Renal Groups Combined:Healthy / Fraction unbound ratio Mild:Healthy / Fraction unbound ratio Moderate:Healthy / Fraction unbound ratio Severe:Healthy: serum
Procedure: as §3

[7] = 16 mg single IV dose, ANOVA, not significant
[8] = 16 mg single IV dose, postdose minus predose, IBS patients, mean (SD)

Cc1nccn1C[C@H]1CCc2c(c3cccc4c3n2CCC4)C1=O [Cilansetron, (R)-(−)-4,5,6,8,9,10-hexahydro-10-[(2-methyl-1H-imidazol-1-yl)methyl]-11H-pyrido-[3,2,1-jk]-carbazol-11-one]
Responders (no abdominal pain at 40 mmHg) (IBS patients; 16 mg IV): 1 of 12 | Pressure inducing abdominal pain, Mean Difference to Placebo (IBS patients; [7]): −1.33 mmHg | Pressure inducing abdominal sensation, Mean Difference to Placebo (IBS patients; [7]): −0.67 mmHg | Pressure inducing abdominal pain, Difference Postdose (IBS patients; [8]): 3.67 (4.66) mmHg | Pressure inducing abdominal sensation, Difference Postdose (IBS patients; [8]): 2.67 (3.55) mmHg | Mean number of stools per day at end of treatment ([1]; 2 mg TID): 2.45 stools per day | Percentage of Subjects Who Worsened from Baseline: Daily Abdominal Pain ([1]; Weeks 1-2, 2 mg TID): 13% | Percentage of Subjects Who Worsened from Baseline: Daily Urgency ([1]; Weeks 1-2, 2 mg TID): 5% | Percentage of Subjects Who Worsened from Baseline: Daily Abdominal Pain ([1]; Weeks 3-4, 2 mg TID): 8% | Percentage of Subjects Who Worsened from Baseline: Daily Urgency ([1]; Weeks 3-4, 2 mg TID): 5% | Percentage of Subjects Who Worsened from Baseline: Daily Abdominal Pain ([1]; Weeks 5-6, 2 mg TID): 9% | Percentage of Subjects Who Worsened from Baseline: Daily Urgency ([1]; Weeks 5-6, 2 mg TID): 8% | Percentage of Subjects Who Worsened from Baseline: Daily Abdominal Pain ([1]; Weeks 7-8, 2 mg TID): 7% | Percentage of Subjects Who Worsened from Baseline: Daily Urgency ([1]; Weeks 7-8, 2 mg TID): 5% | Percentage of Subjects Who Worsened from Baseline: Daily Abdominal Pain ([1]; Weeks 9-10, 2 mg TID): 8% | Percentage of Subjects Who Worsened from Baseline: Daily Urgency ([1]; Weeks 9-10, 2 mg TID): 8% | Percentage of Subjects Who Worsened from Baseline: Daily Abdominal Pain ([1]; Weeks 11-12, 2 mg TID): 8% | Percentage of Subjects Who Worsened from Baseline: Daily Urgency ([1]; Weeks 11-12, 2 mg TID): 8% | Subjects worsened from Baseline, daily abdominal pain ([1]; Weeks 1-2): 13% | Subjects worsened from Baseline, daily urgency ([1]; Weeks 1-2): 5% | Median rate of urgency-free days ([1]; end of treatment): 0.27 | Bloating or abdominal distention score, change from Baseline at end of treatment ([1]; in vivo): −0.48 | Daily abdominal pain/discomfort score, change from Baseline at end of treatment ([1]; in vivo): −0.69 | Daily stool consistency score, change from Baseline at end of treatment ([1]; in vivo): −1.22 | Daily urgency score, change from Baseline at end of treatment ([1]; in vivo): −0.87 | Feeling of incomplete evacuation, change from Baseline at end of treatment ([1]; in vivo): −0.18 | Mean stool consistency score at end of treatment ([1]; in vivo): 4.10 | Mean straining, change from Baseline at end of treatment ([1]; in vivo): 0.09 | Stools per day, change from Baseline at end of treatment ([1]; in vivo): −0.98 | Median rate of pain-free days ([1]; three-month period): 0.19 | Median rate of urgency-free days ([1]; three-month period): 0.32 | Tmax (clinical [2]; Tmax): 1 h | half-life (clinical [2]; T½): 2.85 h | Subjects “not at all or rarely” bothered, rerandomization Endpoint ([3]; C/C): 54% | Subjects “not at all or rarely” bothered, rerandomization Endpoint ([3]; C/P): 37% | Subjects “not at all or rarely” bothered by IBS symptoms ([3]; Endpoint, 3-month period): 46% | Subjects “not at all or rarely” bothered, rerandomization Endpoint ([3]; P/C): 50% | fraction unbound (clinical [4]): 0.0396 | fraction unbound at 1 h (clinical [4]): 0.0351 | fraction unbound at […] (clinical [4]): 0.034 | Subjects “not at all or rarely” bothered by IBS symptoms ([5]; Endpoint): 42% | Subjects worsened from Baseline, interruption of activities ([5]; Month 1): 8% | Percentage of Subjects Who Worsened from Baseline: Interruption of Activities ([5]; Month 1): 8% | Percentage of Subjects Who Worsened from Baseline: Interruption of Activities ([5]; Month 2): 5% | Percentage of Subjects Who Worsened from Baseline: Interruption of Activities ([5]; Month 3): 4% | Protein bound on average [6]: 96.0-96.6% | Fraction unbound ratio All Renal Groups Combined:Healthy [6]: 81 (62, 105) % | Fraction unbound ratio Mild:Healthy [6]: 86 (61, 121) % | Fraction unbound ratio Moderate:Healthy [6]: 84 (54, 131) % | Fraction unbound ratio Severe:Healthy [6]: 73 (52, 102) % | Fraction unbound ratio All Renal Groups Combined:Healthy ([6]; 1 h): 94 (76, 116) % | Fraction unbound ratio Mild:Healthy ([6]; 1 h): 91 (70, 119) % | Fraction unbound ratio Moderate:Healthy ([6]; 1 h): 105 (79, 140) % | Fraction unbound ratio Severe:Healthy ([6]; 1 h): 87 (65, 115) % | Fraction unbound ratio All Renal Groups Combined:Healthy ([6]; […]): 88 (70, 109) % | Fraction unbound ratio Mild:Healthy ([6]; […]): 92 (69, 123) % | Fraction unbound ratio Moderate:Healthy ([6]; […]): 90 (66, 123) % | Fraction unbound ratio Severe:Healthy ([6]; […]): 81 (59, 110) %
